This is an account of results in ChEMBL document CHEMBL4433214, “Investigation around the Oxadiazole Core in the Discovery of a New Chemotype of Potent and Selective FXR Antagonists” (ACS Med Chem Lett, 2019).

A short description of data set [1]: Aqueous solubility of compound in pH 7.4 PBS buffer incubated for 24 hrs under gently shaking condition by LC-MS/MS analysis. The data set is classed as physicochemical.
Data set [2] addresses T1, Oxysterols receptor LXR-beta (Homo sapiens) (UniProt P55055).
T1 sequence (whole entry): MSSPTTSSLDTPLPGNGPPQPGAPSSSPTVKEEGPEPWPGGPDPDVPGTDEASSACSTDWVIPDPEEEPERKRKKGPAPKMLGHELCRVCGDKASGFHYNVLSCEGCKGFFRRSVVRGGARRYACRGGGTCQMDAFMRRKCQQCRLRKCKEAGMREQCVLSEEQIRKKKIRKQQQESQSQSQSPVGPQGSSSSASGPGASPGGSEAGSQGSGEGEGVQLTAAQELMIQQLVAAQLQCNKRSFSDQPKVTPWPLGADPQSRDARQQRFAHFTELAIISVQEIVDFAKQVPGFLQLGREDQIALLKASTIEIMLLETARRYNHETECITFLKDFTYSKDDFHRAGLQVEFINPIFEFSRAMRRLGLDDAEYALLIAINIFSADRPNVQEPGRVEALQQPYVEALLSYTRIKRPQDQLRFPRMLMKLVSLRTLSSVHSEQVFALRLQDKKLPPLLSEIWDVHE
Put plainly: Antagonist activity at human LXRbeta transfected in HepG2 at 5 uM in presence of LXRbeta agonist GW3965 by luciferase reporter assay. Format: cell-based. (A reporter such as luciferase makes a cellular process visible.)

Data set [3] can be described thus: Half life in rat liver microsomes at 1 uM incubated for 2 hrs by LC-MS/MS analysis.
For data set [4], the target named is T2, Nuclear receptor subfamily 1 group I member 2 (Homo sapiens, UniProt O75469).
T2 sequence (O75469 whole entry): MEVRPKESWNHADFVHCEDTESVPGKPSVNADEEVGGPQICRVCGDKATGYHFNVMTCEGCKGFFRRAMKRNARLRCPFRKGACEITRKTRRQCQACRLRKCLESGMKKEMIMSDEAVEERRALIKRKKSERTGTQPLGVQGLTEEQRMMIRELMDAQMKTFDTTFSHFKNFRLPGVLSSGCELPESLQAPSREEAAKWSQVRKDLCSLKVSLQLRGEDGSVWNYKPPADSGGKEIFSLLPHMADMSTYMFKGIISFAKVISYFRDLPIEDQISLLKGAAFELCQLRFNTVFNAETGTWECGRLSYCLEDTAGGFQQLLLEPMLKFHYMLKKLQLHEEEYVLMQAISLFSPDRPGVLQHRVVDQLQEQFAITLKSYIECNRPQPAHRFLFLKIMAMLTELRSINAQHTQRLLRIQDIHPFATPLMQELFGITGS
The data set is described as follows: Agonist activity at human PXR transfected in HepG2 at 10 uM by luciferase reporter assay. The data set is classed as cell-based. Conditions: hepg2, 10 µM.

The target of data set [5] is T3, Peroxisome proliferator-activated receptor gamma (Homo sapiens) (UniProt P37231).
T3 sequence (whole entry): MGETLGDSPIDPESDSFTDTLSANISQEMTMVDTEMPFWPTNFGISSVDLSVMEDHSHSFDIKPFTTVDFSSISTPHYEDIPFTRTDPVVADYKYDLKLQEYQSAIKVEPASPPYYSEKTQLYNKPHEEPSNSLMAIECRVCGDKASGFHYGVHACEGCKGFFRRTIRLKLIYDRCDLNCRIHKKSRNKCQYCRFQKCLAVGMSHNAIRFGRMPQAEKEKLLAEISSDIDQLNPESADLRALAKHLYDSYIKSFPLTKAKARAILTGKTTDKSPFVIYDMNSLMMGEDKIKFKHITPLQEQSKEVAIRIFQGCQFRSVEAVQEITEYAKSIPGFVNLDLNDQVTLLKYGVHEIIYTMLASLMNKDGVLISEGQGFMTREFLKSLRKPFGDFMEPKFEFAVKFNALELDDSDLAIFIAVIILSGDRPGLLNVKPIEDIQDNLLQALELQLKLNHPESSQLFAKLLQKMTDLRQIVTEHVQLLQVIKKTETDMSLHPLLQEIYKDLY
Put plainly: Antagonist activity at human PPARgamma transfected in HepG2 at 5 uM in presence of PPARgamma agonist rosiglitazone by luciferase reporter assay. Format: cell-based.

The target of a further data set is T4, Bile acid receptor (Homo sapiens, UniProt Q96RI1).
T4 sequence (Q96RI1 whole entry): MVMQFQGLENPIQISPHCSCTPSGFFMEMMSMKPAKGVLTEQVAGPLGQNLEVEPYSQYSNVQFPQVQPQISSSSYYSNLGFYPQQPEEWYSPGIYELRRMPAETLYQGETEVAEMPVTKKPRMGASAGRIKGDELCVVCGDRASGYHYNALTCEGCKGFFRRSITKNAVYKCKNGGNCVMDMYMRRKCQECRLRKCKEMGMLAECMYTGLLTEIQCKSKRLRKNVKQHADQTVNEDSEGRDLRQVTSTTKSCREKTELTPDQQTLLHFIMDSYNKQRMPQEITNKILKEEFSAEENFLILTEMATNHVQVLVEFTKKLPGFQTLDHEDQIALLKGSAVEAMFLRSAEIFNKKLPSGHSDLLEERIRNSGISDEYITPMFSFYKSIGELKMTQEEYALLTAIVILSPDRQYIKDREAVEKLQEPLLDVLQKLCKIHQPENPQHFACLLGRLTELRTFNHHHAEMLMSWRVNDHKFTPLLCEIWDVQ
The data set is described as follows: Antagonist activity at human FXR transfected in HepG2 cells assessed as inhibition of CDCA-induced receptor transactivation by luciferase reporter assay. The data set is classed as cell-based.

For data set [6], the target named is T5, Bile acid receptor (Homo sapiens) (UniProt Q96RI1).
T5 sequence (whole entry): T4 sequence (Q96RI1 whole entry)
Put plainly: Antagonist activity at human FXR assessed as reduction in CDCA-induced FXR-SRC-1 recruitment at 500 to 1000 nM incubated for 30 mins by alpha screen assay. A general note: In Alpha technology, singlet oxygen from a donor bead excites a nearby acceptor bead.

Data set [7] has as its target T5, Bile acid receptor (Homo sapiens). The data set is described as follows: Antagonist activity at human FXR in HepG2 cells assessed as reversal of CDCA-induced increase in OSTalpha mRNA expression level at 0.1 to 1 uM dosed after 24 hrs starvation followed by CDCA addition and measured after 18 hrs by RT-PCR analysis.
The target of data set [8] is T1, Oxysterols receptor LXR-beta (Homo sapiens). The data set is described as follows: Agonist activity at human LXRbeta transfected in HepG2 at 10 uM by luciferase reporter assay. Format: cell-based.
The nature of data set [9]: Metabolic stability in rat liver microsomes assessed as parent compound remaining at 1 uM measured after 40 mins by LC-MS/MS analysis. (Liver microsomes are vesicles of endoplasmic reticulum, rich in cytochrome P450 enzymes.)

≈ marks a conversion by molar mass, not a printed value. Calls of active or inactive are those of the source.

`c1ccc2cc(-c3noc(C4CCNCC4)n3)ccc2c1` showed a solubility at 24 h in data set [1] of 200 µM (≈ 55.9 µg/mL). The outcome in data set [2], in data set [5] and in [8] was inactive. In addition, in data set [3], the half-life at 1 µM worked out at 1.86 h. Also, the Activity result in data set [4] is reported as “Not Active”. Also, at Bile acid receptor, the IC50 was found to be 580 nM. In addition, the inhibition result in data set [6] was “Active”. In addition, the result in [7] was Active. The share remaining at 40 min, 1 µM in data set [9] was determined as 76.2%.

In general, solubility refers to the dissolved amount per volume that the medium holds. Low values mean little dissolved substance, high ones much dissolved substance. As a reminder, the half-life is the time needed for the level to fall by half in the phase considered. A low value points to fast loss. Broadly, the IC50 is the concentration at which inhibition is half-maximal. By fraction remaining is commonly meant the share of the starting amount still present when the sample was taken.
